In data set [1] the test system is mitochondrial protein levels of Complexes II and IV. Kind of data set: Mitochondrial Biogenesis Assay after 5-day treatment in PC-3 cells. The format is cell-based. As to conditions: human. As to the method:
(§1) Three-fold serial dilutions of compounds were prepared in duplicate in 96-well plates starting at a concentration close to the CC50 value of the compound after 5-day treatment. For compounds with CC50≧100 μM, the starting concentration was 100 μM. PC-3 cells were plated at a density of 2.5×10^3 cells per well in a final assay volume of 100 μL per well with a constant amount of DMSO equal to 0.5%. After 5-day incubation, the cells were analyzed with the MitoSciences MitoBiogenesis™ In-Cell ELISA Kit (catalog #MS642), which uses quantitative immunocytochemistry to measure protein levels of Complexes II and IV in cultured cells. Cells were fixed in a 96-well plate and target proteins were detected with highly-specific, well-characterized monoclonal antibodies. The protein levels were quantified with IRDyee-labeled Secondary Antibodies. IR imaging and quantitation was performed using a LI-COR® Odyssey instrument. All ratios were expressed as a percentage of the 0.5% DMSO control. In cases where cell viability was severely affected, the data for mitochondrial biogenesis was not included for analysis due to significant errors associated with low signals. Chloramphenicol was used as the positive control for the assay.

The next data set has as its system RSV strain A2. The data set can be described thus: RSV-induced cytopathic effect in Hep2 cells, 384 well method. It is filed as cell-based. The conditions noted are these: human respiratory syncytial virus, HEp-2, 120 h. As to the method: Antiviral activity against RSV is determined using an in vitro cytoprotection assay in Hep2 cells. […] The method used is similar to methods previously described in published literature (Chapman et al., Antimicrob Agents Chemother. 2007, 51(9):3346-53.)
Compounds were also tested for antiviral activity against RSV in Hep2 cells using a 384 well format. Compounds were diluted in DMSO using a 10-step serial dilution in 3-fold increments via automation in 4 adjacent replicates each. Eight compounds were tested per dilution plate. 0.4 uL of diluted compounds were then stamped via Biomek into 384-well plates (Nunc 142761 or 164730 w/lid 264616) containing 20 μL of media (Mediatech Inc. MEM supplemented with Glutamine, 10% FBS and Pen/Strep). DMSO and a suitable positive control compound, such as 80 μM GS-329467 or 10 μM 427346 was used for the 100% and 0% cell killing controls, respectively.
Hep2 cells (1.0×10^5 cells/mil) were prepared as above in batch to at least 40 mls excess of the number of sample plates (8 mls cell mix per plate) and infected with vendor supplied (ABI) RSV strain A2 to arrive at an MOI of 1:1000 (virus:cell #) or 1:3000 (vol virus: cell vol). Immediately after addition of virus, the RSV infected Hep2 cell suspension was added to each stamped 384-well plate at 20 μl per well using a uFlow dispenser, giving a final volume of 40 μL/well, each with 2000 infected cells. The plates were then incubated for 5 days at 37° C. and 5% CO2. Following incubation, the plates were equilibrated to room temperature in a biosafety cabinet hood for 1.5 hrs and 40 μL of Cell-Titer Glo viability reagent (Promega) was added to each well via uFlow. Following a10-20 minute incubation, the plates were read using an EnVision or Victor Luminescence plate reader (Perkin-Elmer). The data was then uploaded and analyzed on the Bioinformatics portal under the RSV Cell Infectivity and 8-plate EC50-Hep2-384 or 8-plate EC50-Hep2-Envision protocols.

A further data set has as its target HCV Δ21 NS5b polymerase (Hepatitis C virus genotype 1b (isolate Con1) (HCV), UniProt Q9WMX2). Kind of data set: HCV IC50 determination, NS5b polymerase assay. The format is biochemical. As to conditions: wild type or S282T mutant enzyme not specified, nucleoside triphosphates. As to the method: Assay Protocol: Either wild type or S282T (Migliaccio, et al., J. Biol. Chem. 2003, 49164-49170; Klumpp, et al., J. Biol. Chem. 2006, 3793-3799) mutant polymerase enzyme was used in this assay. NS5b polymerase assay (40 μL) was assembled by adding 28 μL polymerase mixture (final concentration: 50 mM Tris-HCl at pH 7.5, 10 mM KCl, 5 mM MgCl2, 1 mM DTT, 10 mM EDTA, 4 ng/μL of RNA template, and 75 nM HCV Δ21 NS5b polymerase) to assay plates followed by 4 μL of compound dilution. The polymerase and compound were pre-incubated at 35° C. for 10 minute before the addition of 8 μL of nucleotide substrate mixture (33P-[…] competing nucleotide at KM and 0.5 mM of the remaining three nucleotides). The assay plates were covered and incubated at 35° C. for 90 min. Reactions were then filtered through 96-well DEAE-81 filter plates via vacuum. The filter plates were then washed under vacuum with multiple volumes of 0.125 M NaHPO4, water, and ethanol to remove unincorporated label. Plates were then counted on TopCount to assess the level of product synthesis over background controls. The IC50 value is determined using Prism fitting program.

The next data set relates to HCV replicon cells. The data set can be described thus: HCV EC50 determination, replicon cells luciferase assay. As to conditions: Hepatitis C virus. The format is cell-based. As to the method:
Replicon cells were seeded in 96-well plates at a density of 8×10^3 cells per well in 100 μL of culture medium, excluding Geneticin. Compound was serially diluted in 100% DMSO and then added to the cells at a 1:200 dilution, achieving a final concentration of 0.5% DMSO and a total volume of 200 μL. Plates were incubated at 37° C. for 3 days, after which culture medium was removed and cells were lysed in lysis buffer provided by Promega's luciferase assay system. Following the manufacturer's instruction, 100 μL of luciferase substrate was added to the lysed cells and luciferase activity was measured in a TopCount luminometer.

The subject of data set [2] is protein levels of Complexes II and IV in PC-3 cells. Kind of data set: Mitochondrial Biogenesis Assay after 5-day treatment in PC-3 cells. The format is cell-based. The conditions noted are these: PC-3 cells, 5-day treatment; maximum concentration tested 100 μM. As to the method: as §1
The mark [3] stands for this setting: Hep2 cells, RSV A2, 5 days, Cell-Titer Glo, 384 well format, read-out: EC50.

The term CC50 denotes the concentration giving 50% cytotoxicity. Broadly, the EC50 is the concentration giving half of the maximal effect. For orientation: IC50 means the point on the concentration scale where inhibition reaches its midpoint. Higher therefore signals lower potency.

Where two headings read alike, the source gives them in different places. Some results are limits rather than exact numbers.

On to `O=C(N[C@H](CO)[C@H](O)c1ccc([N+](=O)[O-])cc1)C(Cl)Cl` [Chloramphenicol, reference compound], for which, in data set [1], the 50% cytotoxic concentration (CC50) at 5 days came out at 2.5 µM. Consider `N#C[C@@]1(n2ccc(=O)[nH]c2=O)O[C@H](CO)[C@@H](O)[C@H]1O` [Compound 3], for which, in the data set with RSV strain A2 (setting [3]), the EC50 is 10.9 µM. Still for that read-out and setting: the figure for `N#C[C@@]1(n2ccc(N)nc2=O)O[C@H](CO)[C@@H](O)[C@H]1O` [Compound 4] is 11.3 µM; for `C[C@@H](O)[C@H]1O[C@@](C#N)(n2ccc(=O)[nH]c2=O)[C@@H](O)[C@@H]1O` [Compound 10] it is 200 µM; for `C[C@@H](O)[C@H]1O[C@@](C#N)(n2ccc(N)nc2=O)[C@@H](O)[C@@H]1O` [Compound 11] it is 200 µM. Turning to `CO[C@@H]1[C@H](O)[C@@H](CO)O[C@@]1(C#N)n1ccc(=O)[nH]c1=O` [Compound 12], the EC50 in the data set with RSV strain A2 (setting [3]) worked out at 200 µM. The same measure, in the same setting: the figure for `CO[C@@H]1[C@H](O)[C@@H](CO)O[C@@]1(C#N)n1ccc(N)nc1=O` [Compound 13] is 200 µM; for `C[C@H]1[C@H](O)[C@@H](CO)O[C@@]1(C#N)n1ccc(=O)[nH]c1=O` [Compound 15] it is 200 µM. Compound `C[C@@]1(O)[C@H](O)[C@@H](COP(=O)(O)OP(=O)(O)OP(=O)(O)O)O[C@@]1(C#N)n1ccc(=O)[nH]c1=O` [Compound 27] returned an IC50 against HCV Δ21 NS5b polymerase of 27 µM.

`C[C@@]1(O)[C@H](O)[C@@H](COP(=O)(O)OP(=O)(O)OP(=O)(O)O)O[C@@]1(C#N)n1ccc(N)nc1=O` [Compound 28]: the half-inhibitory concentration (IC50) against HCV Δ21 NS5b polymerase is 18 µM. Take `CC(C)OC(=O)[C@H](C)NP(=O)(OC[C@H]1O[C@@](C#N)(n2ccc(=O)[nH]c2=O)[C@](C)(O)[C@@H]1O)Oc1ccccc1` (stereo partly drawn) [Compound 29]: the EC50 in the data set with HCV replicon cells (72 h) was 8.2 µM. For `CC(C)OC(=O)[C@H](C)N[P@](=O)(OC[C@H]1O[C@@](C#N)(n2ccc(N)nc2=O)[C@](C)(O)[C@@H]1O)Oc1ccccc1` [Compound 30], the half-maximal effective concentration (EC50) in the data set on HCV replicon cells (72 h) is 2.6 µM; in the data set with HCV replicon cells (read-out: EC50 (antiviral activity)), 2.6 µM; in the data set with HCV replicon cells (read-out: HCV EC50) it was 2.6 µM; in the data set with RSV strain A2, 200 µM. In addition, in data set [1] (mitochondrial toxicity, PC-3 cells, 5-day treatment, maximum concentration tested 100 μM, read-out: CC50), the cytotoxic concentration (CC50) at 5 days was > 100 µM. Besides, the “50% inhibition of mitochondrial protein levels” value in data set [2] was > 100 µM. With `CC(C)OC(=O)[C@H](C)N[P@](=O)(OC[C@H]1O[C@@](C#N)(n2ccc(N)nc2=O)[C@](C)(O)[C@@H]1OC(=O)C(C)C)Oc1ccccc1` [Compound 35], the EC50 in the data set with RSV strain A2 came to 200 µM.

Regarding `C[C@@]1(O)[C@H](O)[C@@H](CO)O[C@H]1n1ccc(N)nc1=O` [Compound A, reference compound], the concentration for a half-maximal effect (EC50) with HCV replicon cells (HCV replicon, read-out: EC50 (antiviral activity)) was determined as 2.5 µM; in the data set with HCV replicon cells (replicon, comparison table R6=H vs R6=CN, read-out: HCV EC50) it was 2.5 µM. In addition, the CC50 at 5 days in data set [1] turned out to be 43 µM.

The values above are taken from patent US8877733B2, “1′-substituted pyrimidine N-nucleoside analogs for antiviral treatment” (Gilead Sciences, Inc., priority 2011, dated 2014).
